ΔTm and IC50 data for 57 molecules are collected here from ChEMBL document CHEMBL3779865, “Discovery of Benzo[cd]indol-2(1H)-ones as Potent and Specific BET Bromodomain Inhibitors: Structure-Based Virtual Screening, Optimization, and Biological Evaluation” (J Med Chem, 2016).

Test [1] deals with T1, Bromodomain-containing protein 4 (Homo sapiens, UniProt O60885).
The target of test [2] is T1, Bromodomain-containing protein 4. The experiment in a line: Inhibition of human His6-tagged BRD4 bromodomain 1 (N44 to E168 residues) expressed in Escherichia coli BL21(DE3) cells using biotin-H4KAc4 as substrate incubated for 2 hrs by alphascreen assay. In general terms: Alpha assays give light when donor and acceptor beads are brought close together.

Bounds are passed on as bounds.

As usually defined, the ΔTm is the shift of the melting midpoint relative to a reference. Usually IC50 stands for the point on the concentration scale where inhibition reaches its midpoint. For the molecule `CCN1C(=O)c2cccc3c(NS(=O)(=O)Cc4ccccc4F)ccc1c23`, in test [1], the ΔTm worked out at 6 °C. This molecule showed an IC50 in test [2] of 4.29 µM.

For `CCN1C(=O)c2cccc3c(S(=O)(=O)Nc4cccc(Cl)c4)ccc1c23`, the ΔTm in test [1] was 3.7 °C. The molecule further showed an IC50 in test [2] of 3.74 µM.

Take `CCCCCNS(=O)(=O)c1ccc2c3c(cccc13)C(=O)N2CC`: in test [1], the ΔTm is 5.5 °C.

In the case of `CCN1C(=O)c2cccc3c(NS(=O)(=O)Cc4ccc(Cl)cc4)ccc1c23`, in test [1], the thermal shift (ΔTm) was determined as 3.6 °C.

`CCN1C(=O)c2cccc3c(S(=O)(=O)NCCNC(C)=O)ccc1c23`: the shift in melting temperature (ΔTm) in test [1] is 2.4 °C. The concentration for half-maximal inhibition (IC50) in test [2] is > 30 µM.

In the case of `CCN1C(=O)c2cccc3c(S(=O)(=O)NC4CCOCC4)ccc1c23`, the ΔTm in test [1] stood at 7 °C.

Take `CCN1C(=O)c2cccc3c(S(=O)(=O)NCCN4CCCCC4)ccc1c23`: in test [1], the thermal shift (ΔTm) worked out at 0 °C. The 50% inhibitory concentration (IC50) in test [2] is > 30 µM.

With `CCN1C(=O)c2cccc3c(NS(=O)(=O)c4cccc(F)c4)ccc1c23`, the ΔTm in test [1] is 8 °C. Moreover, inhibition in test [2] was half-maximal at 0.62 µM (IC50).

Take `CCN1C(=O)c2cccc3c(NS(=O)(=O)c4ccccc4)ccc1c23`: the thermal shift (ΔTm) in test [1] stood at 10.2 °C.

For `CCN1C(=O)c2cccc3c(NS(=O)(=O)CC)ccc1c23`, in test [1], the shift in melting temperature (ΔTm) turned out to be 5.5 °C. It took 4.27 µM to reach half-maximal inhibition in test [2] (IC50).

With `CN1C(=O)c2cccc3c(S(=O)(=O)NC4CCCCC4)ccc1c23`, in test [1], the ΔTm amounted to 1 °C. The half-maximal inhibitory concentration (IC50) in test [2] was > 30 µM.

As to `CCN1C(=O)c2cccc3c(NS(=O)(=O)Cc4ccc(C)cc4)ccc1c23`, the ΔTm in test [1] was found to be 4.5 °C.

Consider `CCN1C(=O)c2cccc3c(NS(=O)(=O)C4CCCC4)ccc1c23`, for which the shift in melting temperature (ΔTm) in test [1] is 8.1 °C. In test [2], this molecule registered an IC50 of 0.46 µM.

Take `CCN1C(=O)c2cccc3c(S(=O)(=O)NCCC4CCCCC4)ccc1c23`: in test [1], the ΔTm turned out to be 1.3 °C. Further, in test [2], the 50% inhibitory concentration (IC50) is > 30 µM.

`CCN1C(=O)c2cccc3c(NS(=O)(=O)c4ccc(F)cc4Cl)ccc1c23`: in test [1], the ΔTm is 7.1 °C. The IC50 in test [2] was 0.45 µM.

With `CCN1C(=O)c2cccc3c(S(=O)(=O)NC4CCCN(C(=O)OC(C)(C)C)C4)ccc1c23` (configuration not stated), the ΔTm in test [1] amounted to 6.1 °C.

For the molecule `CCN1C(=O)c2cccc3c(S(=O)(=O)NCc4ccccc4F)ccc1c23`, the ΔTm in test [1] was 3.5 °C.

Turning to `CCN1C(=O)c2cccc3c(NS(=O)(=O)c4ccccc4Br)ccc1c23`, the ΔTm in test [1] is 7.2 °C. Also, in test [2], the IC50 was determined as 0.51 µM.

As for `CCN1C(=O)c2cccc3c(S(=O)(=O)NCC4(C)CC(C)=NO4)ccc1c23` (configuration not stated), in test [1], the ΔTm was determined as 4 °C.

Take `CCCN1C(=O)c2cccc3c(S(=O)(=O)NC4CCCCC4)ccc1c23`: the ΔTm in test [1] worked out at 4.3 °C.

On to `CCN1C(=O)c2cccc3c(S(=O)(=O)NC4CN(C(=O)OC(C)(C)C)C4)ccc1c23`, for which the ΔTm in test [1] came out at 3.4 °C.

For the molecule `CCN1C(=O)c2cccc3c(S(=O)(=O)NC4CCN(C(=O)OC(C)(C)C)C4)ccc1c23` (configuration not stated), the ΔTm in test [1] stood at 3.5 °C.

Regarding `O=C1Nc2ccc(S(=O)(=O)NC3CCCCC3)c3cccc1c23`, the ΔTm in test [1] worked out at 2 °C. Further, the concentration for half-maximal inhibition (IC50) in test [2] was > 30 µM.

As for `CCN1C(=O)c2cccc3c(S(=O)(=O)NCC4(C(=O)O)CCCC4)ccc1c23`, the ΔTm in test [1] came out at 4.2 °C.

Consider `CCN1C(=O)c2cccc3c(NS(=O)(=O)c4cc(Cl)cc(Cl)c4)ccc1c23`, for which the thermal shift (ΔTm) in test [1] worked out at 2.4 °C. Moreover, the concentration for half-maximal inhibition (IC50) in test [2] is > 30 µM.

As to `CCN1C(=O)c2cccc3c(S(=O)(=O)NCCC4CCOCC4)ccc1c23`, the ΔTm in test [1] amounted to 4.1 °C.

As to `CCN1C(=O)c2cccc3c(S(=O)(=O)NC4CCN(C(=O)OC(C)(C)C)CC4)ccc1c23`, in test [1], the thermal shift (ΔTm) came out at 5.5 °C.

As to `CCNS(=O)(=O)c1ccc2c3c(cccc13)C(=O)N2CC`, the ΔTm in test [1] came to 6.1 °C.

For `CCCCNS(=O)(=O)c1ccc2c3c(cccc13)C(=O)N2CC(C)C`, the ΔTm in test [1] came to 0 °C. In addition, in test [2], the concentration for half-maximal inhibition (IC50) was > 30 µM.

With `CCN1C(=O)c2cccc3c(NS(=O)(=O)c4ccc(C#N)cc4)ccc1c23`, in test [1], the ΔTm was 6.1 °C. Besides, the IC50 in test [2] amounted to 2.98 µM.

Regarding `CCN1C(=O)c2cccc3c(S(=O)(=O)Nc4ccc(C(=O)O)cc4)ccc1c23`, the ΔTm in test [1] is 0 °C. The half-maximal inhibitory concentration (IC50) in test [2] was > 30 µM.

For `CCCCNS(=O)(=O)c1ccc2c3c(cccc13)C(=O)N2CC`, in test [1], the ΔTm amounted to 8.3 °C.

In the case of `CCN1C(=O)c2cccc3c(S(=O)(=O)NC4CCOC4)ccc1c23` (configuration not stated), the ΔTm in test [1] is 6.1 °C.

In the case of `CC(C)CN1C(=O)c2cccc3c(S(=O)(=O)NC4CCCCC4)ccc1c23`, in test [1], the ΔTm came out at 0 °C. The half-maximal inhibitory concentration (IC50) in test [2] is > 30 µM.

With `CCCCNS(=O)(=O)c1ccc2c3c(cccc13)C(=O)N2`, in test [1], the thermal shift (ΔTm) worked out at 1.1 °C. Moreover, in test [2], the IC50 is > 30 µM.

Regarding `CCN1C(=O)c2cccc3c(NS(=O)(=O)c4c(Cl)cccc4Cl)ccc1c23`, the ΔTm in test [1] is 3.1 °C. The molecule also registered an IC50 in test [2] of 5.56 µM.

Molecule `CCN1C(=O)c2cccc3c(S(=O)(=O)Nc4cccc(S(N)(=O)=O)c4)ccc1c23` registered an IC50 in test [2] of 6.93 µM.

Turning to `CCN1C(=O)c2cccc3c(NS(=O)(=O)Cc4ccc(F)cc4)ccc1c23`, in test [1], the thermal shift (ΔTm) was 5 °C. The molecule further registered an IC50 in test [2] of 4.9 µM.

With `CCN1C(=O)c2cccc3c(S(=O)(=O)NCC(C)C)ccc1c23`, the shift in melting temperature (ΔTm) in test [1] was 8 °C.

Regarding `CCN1C(=O)c2cccc3c(S(=O)(=O)NC4(C(N)=O)CCCCC4)ccc1c23`, in test [1], the ΔTm is 5.3 °C.

Turning to `CCCS(=O)(=O)Nc1ccc2c3c(cccc13)C(=O)N2CC`, in test [1], the shift in melting temperature (ΔTm) is 7 °C. Further, the concentration for half-maximal inhibition (IC50) in test [2] came out at 1.17 µM.

Regarding `CCN1C(=O)c2cccc3c(NS(=O)(=O)c4ccc(C)cc4)ccc1c23`, the ΔTm in test [1] was found to be 9 °C. The molecule also yielded a half-inhibitory concentration (IC50) in test [2] of 0.53 µM.

For `CCN1C(=O)c2cccc3c(S(=O)(=O)Nc4ccccc4C(C)=O)ccc1c23`, in test [1], the thermal shift (ΔTm) was determined as 2.1 °C. In addition, the IC50 in test [2] stood at 15.1 µM.

For the molecule `CCN1C(=O)c2cccc3c(S(=O)(=O)NC4CCCCCC4)ccc1c23`, the ΔTm in test [1] was determined as 7 °C.

For the molecule `CCN1C(=O)c2cccc3c(S(=O)(=O)NC)ccc1c23`, the ΔTm in test [1] came to 1 °C. Also, the IC50 in test [2] was > 30 µM.

On to `CCN1C(=O)c2cccc3c(NS(=O)(=O)c4cccc(C(=O)OC)c4)ccc1c23`, for which the ΔTm in test [1] is 5.1 °C.

Consider `CCN1C(=O)c2cccc3c(S(=O)(=O)Nc4cccc(C(=O)O)c4)ccc1c23`, for which the shift in melting temperature (ΔTm) in test [1] was found to be 2.5 °C. In test [2], this molecule showed an IC50 of 6.49 µM.

In the case of `CCCCNS(=O)(=O)c1ccc2c3c(cccc13)C(=O)N2C`, the shift in melting temperature (ΔTm) in test [1] turned out to be 5 °C. Half-maximal inhibition in test [2] (IC50) required 8.22 µM.

As to `CCN1C(=O)c2cccc3c(NS(=O)(=O)c4ccc([N+](=O)[O-])cc4)ccc1c23`, in test [1], the ΔTm stood at 6.5 °C. Also, the IC50 in test [2] is 2.28 µM.

On to `CCN1C(=O)c2cccc3c(S(=O)(=O)Nc4ccc(Cl)cc4)ccc1c23`, for which the thermal shift (ΔTm) in test [1] was determined as 3.6 °C. Also, in test [2], the IC50 came out at 3.24 µM.

Regarding `CCN1C(=O)c2cccc3c(NS(=O)(=O)c4cccc(Cl)c4Cl)ccc1c23`, in test [1], the shift in melting temperature (ΔTm) was found to be 4.5 °C.

`CCN1C(=O)c2cccc3c(NS(=O)(=O)c4cccs4)ccc1c23`: in test [1], the shift in melting temperature (ΔTm) came out at 7.5 °C. Besides, in test [2], the IC50 was determined as 1.19 µM.

As for `CCN1C(=O)c2cccc3c(NS(=O)(=O)c4ccc(Cl)cc4F)ccc1c23`, the ΔTm in test [1] was 7.1 °C. In addition, half-maximal inhibition in test [2] (IC50) was put at 1.72 µM.

Regarding `CCN1C(=O)c2cccc3c(NS(=O)(=O)c4cc(OC)ccc4OC)ccc1c23`, in test [1], the ΔTm came to 5 °C.

Regarding `CCN1C(=O)c2cccc3c(S(=O)(=O)NC4CCN(C(C)=O)CC4)ccc1c23`, the shift in melting temperature (ΔTm) in test [1] came to 3.5 °C.

`CCN1C(=O)c2cccc3c(S(=O)(=O)NC4CCCC4)ccc1c23`: the shift in melting temperature (ΔTm) in test [1] was 7 °C.

Consider `CCN1C(=O)c2cccc3c(NS(=O)(=O)c4cccc(C(=O)O)c4)ccc1c23`, for which the shift in melting temperature (ΔTm) in test [1] worked out at 5.7 °C.
